Key:
[1] = Masking bitterness of paracetamol: test panel, equibitter paracetamol solution; format: in vivo
Method: The bitter masking effect of hesperidin against paracetamol was assayed. The anti-bittering effect was measured as a dose-response profile vs. a solution of paracetamol.
A calibrated test panel compared each solution with several solutions of paracetamol in water at different concentrations and determined the equibitter paracetamol solution. The equibitter solution was calculated as the average of all the evaluations of the panel.
The masking effect or percentage of bitterness reduction was then calculated from the reference amount of paracetamol contained in each tested solution (5000 ppm) and the amount of paracetamol in the equibitter solution, using the following formula: […]
Thus, for example, a solution containing 5000 ppm of paracetamol and 250 ppm of hesperidin was equibitter to a solution containing 4000 ppm of paracetamol. Therefore, the masking effect was 20%.
The bitter masking effect of a racemic hesperidin (57% hesperidin 2S: 43% hesperidin 2R; purchased by HealthTech Bio Actives, S.L.U. Beniel, Spain) against paracetamol was also assayed. The anti-bittering effect was measured as a dose-response profile vs. a solution of paracetamol as described above.
Further, the bitter masking effect of a different flavonoid compound, neodiosmin (purchased by HealthTech Bio Actives, S.L.U. Beniel, Spain), was also tested. The anti-bittering effect was measured as a dose-response profile vs. a solution of paracetamol as explained before.

[2] = Solubility in water; format: physicochemical
Method: Hesperidin 2S has a very low solubility in water (less than 10 ppm). However, in presence of NaOH, its solubility increases. In order to study the component in liquid matrixes, a non-heated H2O—NaOH solution was prepared (Table 1).

[3] = Panel evaluation in orange juices containing oleuropeins; format: in vivo; conditions: orange juice with 500 ppm Olews 40%
Method: NaOH:H2O solutions containing different concentrations (100 ppm and 200 ppm) of Hesperidin 2S were prepared as explained above (Table 1) and added to orange juices containing 500 ppm Olews 40% (500 ppm Olews 40%=160 ppm oleuropein). Olews 40% provided by HealthTech Bio Actives S.L.U. (Beniel, Spain).
The taste masking effect against oleuropeins was assayed following an analogous procedure to the one used in Example 1 for paracetamol.
For each tested solution, a test panel determined the equibitter oleuropein solution, and the masking effect was calculated as explained in Example 1. A panel of experts was used to determine the reduction in unpleasant taste impressions of the orange juice preparations containing oleuropeins after addition of H2S.

[4] = Panel evaluation in crackers with reduced NaCl containing KCl; format: in vivo; conditions: 200 ppm H2S
Method: A dosage of 200 ppm of H2S was added to crackers with reduced content of sodium chloride (NaCl) and containing potassium chloride (KCl; Panreac). The composition of the crackers is disclosed in Table 4 below:
The taste masking effect was assayed, following an analogous procedure to the one disclosed in Example 1. A panel of experts was used to determine the reduction in unpleasant taste impressions of the potassium chloride-containing preparations after addition of H2S.

[5] = Panel evaluation in dark chocolate 95%; format: in vivo
Method: Reduction of unpleasant taste impressions in dark chocolate (95%) preparations was evaluated using different concentrations of H2S (100 ppm and 200 ppm).
Hesperidin 2S (dry powder) was incorporated into a sample of melted dark chocolate (95%). The liquid mass was cooled and mold, obtaining a solid chocolate.
A panel of experts was used to determine the reduction in unpleasant taste impressions of the dark chocolate (95%) preparations.

[6] = Panel evaluation in limonin solution (greening disease model); format: in vivo; conditions: 200 ppm H2S in limonin 50 ppm solution
Method: In order to determine the reduction in unpleasant taste impressions (bitterness) by hesperidin in a greening disease model, a limonin solution was prepared as indicated in Table 6. This solution was used for testing. Limonin (99.66%) was purchased from TargetMol.
The effect of H2S (200 ppm) in a limonin solution (50 ppm) was evaluated. A panel of experts was used to determine the reduction in unpleasant taste impressions of the limonin-containing preparation.

[7] = Panel evaluation in greening affected orange juices; format: in vivo; conditions: greening affected orange juice
Method: Orange Juice samples obtained from oranges from trees afflicted with greening disease were provided by F&M Solutions (Brasil). The juice samples were prepared by squeezing oranges collected from afflicted tree branches from local Brazilian farmers. The squeezed orange juice was bottled and pasteurized by standard methods well known in the art.
Different concentrations of Hesperidin 2S (100 ppm and 200 ppm) were evaluated in the orange juices from greening afflicted oranges.
A panel of experts was used to determine the reduction in unpleasant taste impressions of the different samples.

[8] = Panel evaluation in fresh squeezed orange juices; format: in vivo; conditions: 100 ppm or 200 ppm H2S; fresh squeezed orange juice
Method: NaOH:H2O solutions containing different concentrations (100 ppm and 200 ppm) of Hesperidin 2S were prepared as explained above (Table 1) and added to fresh squeezed orange juices.
A panel of experts was used to determine the reduction in unpleasant tastes of the fresh squeezed orange juices after addition of different concentrations of H2S.

[9] = Panel evaluation in tonic water; format: in vivo; conditions: quinine salt 78 ppm
Method: NaOH:H2O solutions containing different concentrations (100 ppm and 200 ppm) of Hesperidin 2S were prepared as explained above (Table 1) and added to a tonic water samples prepared as indicated in Table 10 below:
A panel of experts was used to determine the reduction in unpleasant taste impression of the different samples.

[10] = Panel evaluation in plant-based burger containing oleuropeins; format: in vivo; conditions: plant-based burger with 2000 ppm Olews 40%
Method: Reduction of unpleasant taste impression in a plant-based burger was evaluated using different concentrations of H2S (100 ppm and 200 ppm). Hesperidin 2S (dry powder) was incorporated into the preparations containing 2000 ppm Olews 40% provided by HealthTech Bio Actives, S.L.U. (Beniel, Spain) (2000 ppm Olews 40%=[…]) as indicated in Table 11 below:
A panel of experts was used to determine the reduction in unpleasant taste impressions of the plant-based burger preparations.

[11] = Panel evaluation in protein milkshake; format: in vivo; conditions: 100 ppm or 200 ppm H2S
Method: NaOH:H2O solutions containing different concentrations (100 ppm and 200 ppm) of Hesperidin 2S were prepared as explained above (Table 1) and added to a protein milkshake prepared as indicated in Table 12 below.
The taste masking effect was assayed, following an analogous procedure to the one used in Example 1. A panel of experts was used to determine the reduction in unpleasant taste impressions of the protein milkshake preparations after addition of H2S.

[12] = 10 ppm test substance in 5000 ppm paracetamol aqueous solution
[13] = 50 ppm test substance in 5000 ppm paracetamol aqueous solution
[14] = 100 ppm test substance in 5000 ppm paracetamol aqueous solution
[15] = 250 ppm test substance in 5000 ppm paracetamol aqueous solution
[16] = 250 ppm test substance in 5000 ppm paracetamol aqueous solution, listed as hesperidin
[17] = 500 ppm test substance in 5000 ppm paracetamol aqueous solution

In the case of `COc1ccc([C@@H]2CC(=O)c3c(O)cc(O[C@@H]4O[C@H](CO[C@@H]5O[C@@H](C)[C@H](O)[C@@H](O)[C@H]5O)[C@@H](O)[C@H](O)[C@H]4O)cc3O2)cc1O` (racemic) [Racemic Hesperidin, hesperidin], the “% of bitterness reduction” value [1, 12] is reported as 4%, the Equibitter paracetamol concentration [1, 12] is reported as 4800 ppm and the “% of bitterness reduction” value [1, 13] is reported as 6%. The Equibitter paracetamol concentration [1, 13] was 4700 ppm, the “% of bitterness reduction” value [1, 14] was 13% and the Equibitter paracetamol concentration [1, 14] was 4350 ppm. For the same compound, the “% of bitterness reduction” value [1, 15] was 18% and the Equibitter paracetamol concentration [1, 15] was 4100 ppm.

With `COc1ccc([C@@H]2CC(=O)c3c(O)cc(O[C@@H]4O[C@H](CO[C@@H]5O[C@@H](C)[C@H](O)[C@@H](O)[C@H]5O)[C@@H](O)[C@H](O)[C@H]4O)cc3O2)cc1O` (racemic) [Hesperidin 2S, (2S)-5-hydroxy-2-(3-hydroxy-4-methoxyphenyl)-7-[(2S,3R,4S,5S,6R)-3,4,5-trihydroxy-6-{[(2R,3R,4R,5R,6S)-3,4,5-trihydroxy-6-methyloxan-2-yl]oxymethyl}oxan-2-yl]oxy-2,3-dihydrochromen-4-one] the “% of bitterness reduction” value [1, 12] was 5%, the Equibitter paracetamol concentration [1, 12] was 4750 ppm and the “% of bitterness reduction” value [1, 13] was 11%. For the same compound, the Equibitter paracetamol concentration [1, 13] was 4450 ppm, the “% of bitterness reduction” value [1, 14] was 20% and the Equibitter paracetamol concentration [1, 14] was 4000 ppm. For the same compound, the “% of bitterness reduction” value [1, 15] was 37%, the Equibitter paracetamol concentration [1, 15] was 3150 ppm and the “% of bitterness reduction” value ([1]; 250 ppm test substance in 5000 ppm paracetamol aqueous solution, listed as H2S) was 37%. The “% of bitterness reduction” value [1, 16] was 20%, the Equibitter paracetamol concentration [1, 16] was 4000 ppm and the “% of bitterness reduction” value ([1]; 250 ppm test substance in 5000 ppm paracetamol aqueous solution, listed as non-racemic hesperidin 2S) was 37%. The “solubility in presence of NaOH” value ([2]; in presence of NaOH) was “increases”, the solubility in water ([2]; water) was “less than 10 ppm” and the orange notes ([3]; 200 ppm H2S (FIG. 1B)) was “enhanced”. The “woody and bitter taste coming from the oleuropein masked” value ([3]; 200 ppm H2S (FIG. 1B)) was 40%, the “woody and bitter taste” value ([3]; 200 ppm H2S as printed (FIG. 1A)) was “masked” and the “pungent and metallic notes” value ([4]; KCl-containing crackers) was “suppressed”. For the same compound, the saltiness ([4]; crackers with reduced sodium chloride) was “increase”, the bitterness and astringency ([5]; 200 ppm H2S) was “decreased” and the flavonoid notes ([5]; 200 ppm H2S) was “not present”. The bitterness ([5]; 200 ppm H2S as printed) was “decrease”, the cocoa notes ([5]; 200 ppm H2S as printed) was “slightly enhanced” and the “% of bitterness reduction” value [6] was 30%. For the same compound, the Equibitter [6] was 35 ppm, the “bitterness, acidity and astringency” value ([7]; 100 ppm H2S) was “significant reduction” and the flavonoid note ([7]; 100 ppm H2S) was “noticeable”. The “green orange notes and bitter aftertaste” value ([7]; 100 ppm H2S) was “Reduction”, the overall orange notes ([7]; 100 ppm H2S) was “slight reduction” and the flavonoid note ([7]; 200 ppm H2S) was “increased”. For the same compound, the “green orange notes and bitter aftertaste” value ([7]; 200 ppm H2S) was “reduction”, the overall orange notes ([7]; 200 ppm H2S) was “reduction” and the “bitterness, acidity and astringency” value ([7]; 200 ppm H2S, to a lesser extent than 100 ppm) was “reduction”. The “astringent and bitter taste” value [8] was “clearly reduced”, the bitterness ([9]; 100 ppm H2S) was “significant reduction” and the bitterness ([9]; 200 ppm H2S) was “reduction”. The bitterness ([10]; 100 ppm H2S) was “decrease”, the flavonoid notes ([10]; 100 ppm H2S) was “not present” and the woody off-flavor notes ([10]; 100 ppm H2S) was “reduced”. The “bitterness and bean notes” value ([10]; 200 ppm H2S) was “decreased”, the flavonoid notes ([10]; 200 ppm H2S) was “not present” and the woody off-flavor notes ([10]; 200 ppm H2S) was “reduced”. For the same compound, the bitter taste [11] was “reduced” and the dry fava notes [11] was “reduced”.

For `COc1ccc(-c2cc(=O)c3c(O)cc(O[C@@H]4O[C@H](CO)[C@@H](O)[C@H](O)[C@H]4O[C@@H]4O[C@@H](C)[C@H](O)[C@@H](O)[C@H]4O)cc3o2)cc1O` [Neodiosmin, neodiosmin, reference compound], the “% of bitterness reduction” value [1, 13] was 12%, the Equibitter paracetamol concentration [1, 13] was 4400 ppm and the “% of bitterness reduction” value [1, 14] was 12%. The Equibitter paracetamol concentration [1, 14] was 4400 ppm, the “% of bitterness reduction” value [1, 15] was 16% and the Equibitter paracetamol concentration [1, 15] was 4200 ppm. The “% of bitterness reduction” value [1, 17] was 24% and the Equibitter paracetamol concentration [1, 17] was 3800 ppm.

From patent publication US20240148038A1, “TASTE-MASKING COMPOUNDS AND COMPOSITIONS AND USES THEREOF” (HEALTHTECH BIO ACTIVES, S.L.U., priority 2021, published 2024)
